Measured values as given in patent US11453703B2, “Heterotandem bicyclic peptide complexes” (BicycleTX Limited, priority 2018, dated 2022).

Columns and labels:
[1] = system: human PBMC co-cultured with 4T1-D02 (Nectin4+); test: Human PBMC-4T1 co-culture (cytokine release) assay; assay type: cell-based; conditions: anti-CD3 stimulated PBMC, 48 hours
Experimental: Mouse mammary gland tumor cell line 4T1-1 (4T1-Parental) and murine Nectin-4 overexpressing 4T1 (4T1-D02) were cultured in RPMI1640 supplemented with 10% heat-inactivated Fetal Bovine Serum, 100 I.U/ml Penicillin and 100 I.U/Streptomycin, 20 mM HEPES, 1× Non-Essential Amino Acids, and 2 mM L-Glutamine (RPMI working medium). Frozen PBMCs from healthy human donors were thawed and washed one time in room temperature PBS, and then resuspended in RPMI working medium. For tumor cell and PBMC co-culture, 10000 PBMCs and 2000 tumor cells (5:1) were mixed and plated in each well of a 384 well plate. For stimulating human PBMCs, 125 ng/ml of soluble anti-CD3 mAb (clone OKT3) was added to the culture on day 0. Test, control compounds or vehicle controls were added to respective wells and brought the final volume per well to 100u1. Plates were incubated in a 37° C. cell culture incubator with 5% CO2 for up to three days. Supernatants were collected 48 hours after stimulation, and human IL-2 and IFFγ were detected using HTRF assays. Raw data were analyzed using Excel or Prism software to generate standard curves to interpolate protein concentrations. Data represents one study with three different donor PBMC tested in experimental duplicates.

[2] = molecular target: T1, CD137 (Homo sapiens, UniProt Q07011); test: CD137 Biacore (SPR) binding assay; design: purchased R&D systems; conditions: biotinylated human CD137, 25° C.
Experimental: Biacore experiments were performed to determine ka (M^−1s^−1), kd (s^−1), KD (nM) values of heterotandem peptides binding to human CD137 protein. […] The protein was desalted to remove uncoupled biotin using spin columns into PBS.
For analysis of peptide binding, a Biacore T200 or a Biacore 3000 instrument was used with a XanTec CMD500D chip. Streptavidin was immobilized on the chip using standard amine-coupling chemistry at 25° C. with HBS-N (10 mM HEPES, 0.15 M NaCl, pH 7.4) as the running buffer. Briefly, the carboxymethyl dextran surface was activated with a 7 min injection of a 1:1 ratio of 0.4 M 1-ethyl-3-(3-dimethylaminopropyl) carbodiimide hydrochloride (EDC)/0.1 M N-hydroxy succinimide (NHS) at a flow rate of 10 μl/min. For capture of streptavidin, the protein was diluted to 0.2 mg/ml in 10 mM sodium acetate (pH 4.5) and captured by injecting 120 μl of onto the activated chip surface. Residual activated groups were blocked with a 7 min injection of 1 M ethanolamine (pH 8.5) and biotinylated CD137 captured to a level of 270-1500 RU. Buffer was changed to PBS/0.05% Tween 20 and a dilution series of the peptides was prepared in this buffer with a final DMSO concentration of 0.5%. The top peptide concentration was 500 nM with 6 further 2-fold or 3-fold dilutions. The SPR analysis was run at 25° C. at a flow rate of 90 μl/min with 60 seconds association and 900 seconds dissociation. After each cycle a regeneration step (10 μl of 10 mM glycine pH 2) was employed. Data were corrected for DMSO excluded volume effects as needed. All data were double-referenced for blank injections and reference surface using standard processing procedures and data processing and kinetic fitting were performed using Scrubber software, version 2.0c (BioLogic Software). Data were fitted using simple 1:1 binding model allowing for mass transport effects where appropriate.

[3] = molecular target: T1, CD137; test: CD137 reporter assay, co-culture with Nectin-4 tumour cells; assay type: cell-based; design: host or cells: Jurkat reporter cells; conditions: read-out: Fold Induction over Background at 100 nM;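 also: jurkat reporter cells co-cultured with tumour cells and test article for 6 h, luminescence signal relative to Jurkat plus tumour cells lacking test article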
[4] = molecular target: human EphA2 protein (Homo sapiens, UniProt P29317); test: EphA2 Biacore (SPR) binding assay; conditions: biotinylated human EphA2, 25° C.
Experimental: Biacore experiments were performed to determine ka (M^−1s^−1), kd (s^−1), KD (nM) values of heterotandem peptides binding to human EphA2 protein.
EphA2 were biotinylated with EZ-Link™ Sulfo-NHS-LC-Biotin for 1 hour in 4 mM sodium acetate, 100 mM NaCl, pH 5.4 with a 3× molar excess of biotin over protein. The degree of labelling was determined using a Fluorescence Biotin Quantification Kit (Thermo) after dialysis of the reaction mixture into PBS. For analysis of peptide binding, a Biacore T200 instrument was used with a XanTec CMD500D chip. Streptavidin was immobilized on the chip using standard amine-coupling chemistry at 25° C. with HBS-N (10 mM HEPES, 0.15 M NaCl, pH 7.4) as the running buffer. Briefly, the carboxymethyl dextran surface was activated with a 7 min injection of a 1:1 ratio of 0.4 M 1-ethyl-3-(3-dimethylaminopropyl) carbodiimide hydrochloride (EDC)/0.1 M N-hydroxy succinimide (NHS) at a flow rate of 10 it/min. For capture of streptavidin, the protein was diluted to 0.2 mg/ml in 10 mM sodium acetate (pH 4.5) and captured by injecting 120 μl onto the activated chip surface. Residual activated groups were blocked with a 7 min injection of 1 M ethanolamine (pH 8.5):HBS-N (1:1). Buffer was changed to PBS/0.05% Tween 20 and biotinylated EphA2 was captured to a level of 500-1500 RU using a dilution of protein to 0.2 μM in buffer. A dilution series of the peptides was prepared in this buffer with a final DMSO concentration of 0.5% with a top peptide concentration was 50 or 100 nM and 6 further 2-fold dilutions. The SPR analysis was run at 25° C. at a flow rate of 90 μl/min with 60 seconds association and 900-1200 seconds dissociation. Data were corrected for DMSO excluded volume effects. All data were double-referenced for blank injections and reference surface using standard processing procedures and data processing and kinetic fitting were performed using Scrubber software, version 2.0c (BioLogic Software). Data were fitted using simple 1:1 binding model allowing for mass transport effects where appropriate.

[5] = molecular target: T1, CD137; test: CD137 reporter assay, co-culture with EphA2 tumour cells; assay type: cell-based; design: host or cells: Jurkat reporter cells; conditions: tumour target EphA2, co-culture with SC-OV-3, 6 h
Outline: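 Jurkat CD137 reporter cells co-cultured with tumour cells and serially diluted test articles in RPMI-1640 + 1% FBS, 6 h at 37 °C, 5% CO2. Luminescence read after Bio-Glo; fold change over cells-only background fitted log(agonist) vs response for EC50 (nM) and maximal fold induction.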

T1 sequence (Q07011 24-255): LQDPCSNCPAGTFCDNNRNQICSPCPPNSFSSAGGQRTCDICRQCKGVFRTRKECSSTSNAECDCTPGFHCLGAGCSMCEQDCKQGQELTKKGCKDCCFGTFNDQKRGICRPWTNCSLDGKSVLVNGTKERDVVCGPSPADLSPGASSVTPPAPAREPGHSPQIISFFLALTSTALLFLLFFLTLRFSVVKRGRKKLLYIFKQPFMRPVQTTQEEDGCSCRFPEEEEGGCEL
human EphA2 protein, sequence (P29317 24-976): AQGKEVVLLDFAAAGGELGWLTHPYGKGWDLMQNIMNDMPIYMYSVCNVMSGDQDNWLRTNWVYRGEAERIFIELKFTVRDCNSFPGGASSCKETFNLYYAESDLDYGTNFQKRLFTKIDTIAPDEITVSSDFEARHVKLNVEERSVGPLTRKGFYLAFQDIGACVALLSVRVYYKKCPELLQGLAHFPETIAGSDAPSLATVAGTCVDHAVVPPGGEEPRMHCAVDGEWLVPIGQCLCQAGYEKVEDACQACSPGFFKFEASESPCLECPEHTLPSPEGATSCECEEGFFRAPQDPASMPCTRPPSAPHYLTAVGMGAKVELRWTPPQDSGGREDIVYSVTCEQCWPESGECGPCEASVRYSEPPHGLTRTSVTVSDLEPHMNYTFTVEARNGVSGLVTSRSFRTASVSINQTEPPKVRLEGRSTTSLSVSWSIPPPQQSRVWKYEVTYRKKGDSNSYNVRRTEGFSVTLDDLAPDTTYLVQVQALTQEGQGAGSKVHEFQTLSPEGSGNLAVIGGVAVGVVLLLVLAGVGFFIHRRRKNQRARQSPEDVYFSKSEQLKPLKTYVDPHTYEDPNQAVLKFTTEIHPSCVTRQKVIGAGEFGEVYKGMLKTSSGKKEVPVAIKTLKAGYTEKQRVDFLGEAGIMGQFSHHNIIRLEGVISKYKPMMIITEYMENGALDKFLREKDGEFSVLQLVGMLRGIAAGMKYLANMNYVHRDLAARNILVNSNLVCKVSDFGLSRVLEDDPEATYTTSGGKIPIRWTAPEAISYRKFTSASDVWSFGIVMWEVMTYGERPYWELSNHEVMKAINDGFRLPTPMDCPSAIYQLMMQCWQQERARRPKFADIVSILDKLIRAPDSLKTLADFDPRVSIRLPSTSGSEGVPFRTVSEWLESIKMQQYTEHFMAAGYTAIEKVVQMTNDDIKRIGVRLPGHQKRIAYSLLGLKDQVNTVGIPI

Structure (SMILES)	max IFN-y [1]	Kd [2] [nM]	fold induction at 0.1 µM [3]	Kd [4] [nM]	EC50 [5] [nM]	Fold Induction over Background [5] [fold]
CCCC[C@@H]1NC(=O)[C@H](Cc2ccc(O)cc2)NC(=O)[C@@H]2CCCN2C(=O)[C@H](CC(=O)O)NC(=O)[C@@H](C)NC(=O)[C@H](Cc2ccccc2)NC(=O)[C@@H]2CSCCC(=O)N3CN(CN(C3)C(=O)CCSC[C@@H](C(=O)N[C@@H](CNC(=O)CCOCCOCCOCCOCCOCCOCCOCCOCCOCCOCCOCCOCCn3cc(CCC(=O)NCCC(=O)N(C)CC(=O)N(C)CC(=O)N(C)CC(=O)N(C)CC(=O)N(C)CC(=O)N(C)CC(=O)N(C)CC(=O)N(C)CC(=O)N(C)CC(=O)N(C)CC(=O)N[C@H]4CSCCC(=O)N5CN6CN(C5)C(=O)CCSC[C@H](NC(=O)[C@@H](CC(=O)O)NC(=O)[C@H](Cc5cccc7ccccc57)NC(=O)[C@@H]5CCCN5C4=O)C(=O)N[C@@H](CCSC)C(=O)N[C@@H](CCCCNC(=N)N)C(=O)N[C@@H](CC(=O)O)C(=O)N[C@@H](Cc4c[nH]c5ccccc45)C(=O)N[C@@H](CO)C(=O)N[C@@H]([C@@H](C)O)C(=O)N4CCC[C@H]4C(=O)N4C[C@H](O)C[C@H]4C(=O)N[C@@H](Cc4c[nH]c5ccccc45)C(=O)N[C@H](C(N)=O)CSCCC6=O)nn3)C(N)=O)NC1=O)C(=O)CCSC[C@H](NC(=O)[C@H](C)NC(C)=O)C(=O)N[C@@H]([C@@H](C)CC)C(=O)N[C@@H](CCC(=O)O)C(=O)N[C@@H](CCC(=O)O)C(=O)NCC(=O)N[C@@H](CCC(N)=O)C(=O)N[C@@H](Cc1ccc(O)cc1)C(=O)N2 [BCY9351]	No Activity up to 1 μM	3640	< 2	–	–	–
CCCC[C@@H]1NC(=O)[C@H](Cc2ccc(O)cc2)NC(=O)[C@@H]2CCCN2C(=O)[C@H](CC(=O)O)NC(=O)[C@H](C)NC(=O)[C@H](Cc2ccccc2)NC(=O)[C@@H]2CSCCC(=O)N3CN(CN(C3)C(=O)CCSC[C@@H](C(=O)N[C@@H](CNC(=O)CCc3cn(CCOCCOCCOCCOCCOCCOCCOCCOCCOCCOCCNC(=O)NCCC(=O)N(C)CC(=O)N(C)CC(=O)N(C)CC(=O)N(C)CC(=O)N(C)CC(=O)N(C)CC(=O)N(C)CC(=O)N(C)CC(=O)N(C)CC(=O)N(C)CC(=O)N[C@@H](C)C(=O)N[C@@H](CCCCNC(=N)N)C(=O)N[C@@H](CC(=O)O)C(=O)N[C@H]4CSCCC(=O)N5CN6CN(C5)C(=O)CCSC[C@H](NC(=O)[C@H](CC(C)C)NC(=O)[C@@H]5CCCN5C(=O)[C@H](CC(N)=O)NC(=O)[C@H](C(C)C)NC(=O)[C@H](CC(C)C)NC(=O)[C@@H]5C[C@@H](O)CN5C4=O)C(=O)N[C@@H](CC(C)C)C(=O)N[C@@H](Cc4c[nH]cn4)C(=O)N4CCC[C@H]4C(=O)N[C@H](CC(=O)O)C(=O)N[C@@H](Cc4c[nH]c5ccccc45)C(=O)N[C@@H](CCCCNC(=N)N)C(=O)N[C@H](C(N)=O)CSCCC6=O)nn3)C(N)=O)NC1=O)C(=O)CCSC[C@H](NC(=O)[C@H](C)NC(C)=O)C(=O)N[C@@H]([C@@H](C)CC)C(=O)N[C@@H](CCC(=O)O)C(=O)N[C@@H](CCC(=O)O)C(=O)NCC(=O)N[C@@H](CCC(N)=O)C(=O)N[C@@H](Cc1ccc(O)cc1)C(=O)N2 [BCY9647]	–	206	–	1.69	7.2	24
CCCC[C@@H]1NC(=O)[C@H](Cc2ccc(O)cc2)NC(=O)[C@@H]2CCCN2C(=O)[C@H](CC(=O)O)NC(=O)[C@H](C)NC(=O)[C@H](Cc2ccccc2)NC(=O)[C@@H]2CSCCC(=O)N3CN(CN(C3)C(=O)CCSC[C@@H](C(=O)N[C@@H](CNC(=O)CCc3cn(CCOCCOCCOCCOCCOCCOCCOCCOCCOCCOCCOCCOCCOCCOCCOCCOCCOCCOCCOCCOCCOCCOCCOCCNC(=O)NCCC(=O)N(C)CC(=O)N(C)CC(=O)N(C)CC(=O)N(C)CC(=O)N(C)CC(=O)N(C)CC(=O)N(C)CC(=O)N(C)CC(=O)N(C)CC(=O)N(C)CC(=O)N[C@@H](C)C(=O)N[C@@H](CCCCNC(=N)N)C(=O)N[C@@H](CC(=O)O)C(=O)N[C@H]4CSCCC(=O)N5CN6CN(C5)C(=O)CCSC[C@H](NC(=O)[C@H](CC(C)C)NC(=O)[C@@H]5CCCN5C(=O)[C@H](CC(N)=O)NC(=O)[C@H](C(C)C)NC(=O)[C@H](CC(C)C)NC(=O)[C@@H]5C[C@@H](O)CN5C4=O)C(=O)N[C@@H](CC(C)C)C(=O)N[C@@H](Cc4c[nH]cn4)C(=O)N4CCC[C@H]4C(=O)N[C@H](CC(=O)O)C(=O)N[C@@H](Cc4c[nH]c5ccccc45)C(=O)N[C@@H](CCCCNC(=N)N)C(=O)N[C@H](C(N)=O)CSCCC6=O)nn3)C(N)=O)NC1=O)C(=O)CCSC[C@H](NC(=O)[C@H](C)NC(C)=O)C(=O)N[C@@H]([C@@H](C)CC)C(=O)N[C@@H](CCC(=O)O)C(=O)N[C@@H](CCC(=O)O)C(=O)NCC(=O)N[C@@H](CCC(N)=O)C(=O)N[C@@H](Cc1ccc(O)cc1)C(=O)N2 [BCY9648]	–	202	–	1.75	9.3	20
